{
  "source": "patent US20080102042A1",
  "about": "“Oral Composition” (KYOWA HAKKO KOGYO CO., LTD., priority 2004, published 2008)",
  "key": {"[1]": {"system": "advanced alveolar pyorrhea", "assay": "Test Example 1: injection into the periodontal pocket of a patient with advanced alveolar pyorrhea, with gingival massage", "format": "in vivo, human", "conditions": "buffered saline (pH 7.0) containing 2.5% by weight, 0.8 ml into periodontal pocket, gingiva massaged, twice a day for two weeks; one patient", "protocol": "Buffered saline (pH 7.0) containing 2.5% by weight of N-acetylhydroxyproline (0.8 ml) was injected into the periodontal pocket of a patient with advanced alveolar pyorrhea and the gingiva was lightly massaged."}, "alveolar pyorrhea": {"system": "alveolar pyorrhea", "assay": "Test Example 2: injection into the periodontal pocket of a patient with alveolar pyorrhea (big periodontal pocket, loose tooth), then continued toothbrushing", "format": "in vivo, human", "protocol": "This treatment was carried out after toothbrushing three times a day for two weeks. […] Thereafter, toothbrusing was continuously carried out using a very fine toothbrush with buffered saline (pH 7.0) containing 2.5% by weight of N-acetylhydroxyproline on it with massage of the gingiva and the inside of the periodontal pocket. This toothbrusing was carried out for more than three minutes three times a day."}, "[2]": {"conditions": "buffered saline (pH 7.0) containing 2.5% by weight, 0.8 ml into periodontal pocket, after toothbrushing three times a day for two weeks, one patient"}},
  "data": [
    {"smiles": "CC(=O)N1C[C@H](O)C[C@H]1C(=O)O", "note": "[N-acetylhydroxyproline, N-acetyl-trans-4-hydroxy-L-proline]", "values": [
      {"measurement": "symptoms of alveolar pyorrhea", "setting": "[1]", "value": "remarkably improved"},
      {"measurement": "looseness of the tooth", "setting": "alveolar pyorrhea; [2]", "value": "remarkably improved"},
      {"measurement": "pain of alveolar pyorrhea", "setting": "alveolar pyorrhea; [2]", "value": "completely disappeared"},
      {"measurement": "healthy state without pain or looseness of tooth (prevention of recurrence)", "setting": "alveolar pyorrhea; thereafter continued toothbrushing with buffered saline (pH 7.0) containing 2.5% by weight, more than three minutes three times a day", "value": "could be maintained"}
    ]}
  ]
}
